In patent US20210238551A1, “Method for Generating Regulatory T Cells” (Osaka University, priority 2018, published 2021):

Assays:
[1] = system: mouse naïve T cells; experiment: Bisulfite sequencing of regulatory T cell-specific demethylation in regulatory T cells induced from mouse naïve T cells; assay type: cell-based; conditions: 10 μg/ml or 30 μg/ml ascorbic acid in basal medium, Example 1 culture system, FIG. 3
Protocol: (§1) Genomic DNA was obtained from induced cells, treated with MethylEasy Xceed Rapid DNA Bisulphite Modification Kit (Human Genetic Signatures), and then examined for demethylations in genes specific to regulatory T cells. The demethylations in each gene were analyzed by using known methods and primers (Floess et al. (2007) PloS Biology Volume 5, Issue 2, e38, and Ohkura et al. (2012) Immunity 37(5) 785-799).
(§2) For the analysis in mouse Foxp3 CNS2 region, 5′-[…]-3′ (SEQ ID NO: 1) was used as the primer on the forward side, and 5′-[…]-3′ (SEQ ID NO: 2) was used as the primer on the reverse side. For the analysis in human Foxp3 CNS2 region, 5′-[…]-3′ (SEQ ID NO: 3) was used as the primer on the forward side, and 5′-[…]-3′ (SEQ ID NO: 4) was used as the primer on the reverse side.
Mouse naïve T cells were obtained from lymph nodes of eFox reporter mice by FACS. […] We analyzed regulatory T cell-specific demethylation sites and commonly methylation sites in Foxp3, CTLA4, Eos, and Helios. […]

[2] = system: human CD4+ CD25- CD45RA+ T cells; experiment: Bisulfite sequencing of demethylation in Foxp3 CNS2 region in regulatory T cells induced from human T cells; assay type: cell-based; conditions: combined with ascorbic acid, FIG. 13
Protocol: as §1, §2
Human CD4^+ CD25^− CD45RA^+ T cells (human T cells) were stimulated in the basal medium comprising anti-CD3 antibody, anti-CD28 antibody, and IL-2 for 3 days. The cells were then cultured for pretreatment in the basal medium supplemented with only IL-2 for 4 days. […]

[3] = system: human T cells; conditions: existing methods, Non-patent literature 3; cited from earlier work

What does the source list for O=C1O[C@H]([C@@H](O)CO)C(O)=C1O [ascorbic acid]?
degree of demethylations at regulatory T cell-specific sites on adding ascorbic acid [1]: degree of the demethylations was further increased; demethylation effect in human T cell-derived regulatory T cells [2]: demethylation effect of ascorbic acid was also observed; induction of regulatory T cell-specific demethylations in human T cells [3]: cannot induce regulatory T cell-specific demethylations in human T cells
